Experimental data published in patent US5565568A, “2-acylaminopropanamides as tachykinin receptor antagonists” (Eli Lilly and Company, priority 1995, dated 1996).
Structures can show the parent of a compound that is named as a salt.

Key:
human NK-2 receptor = target: T1, human NK-2 receptor (Homo sapiens, UniProt P21452); test: NK-2 Receptor Binding Assay ([125I]iodohistidyl-neurokinin A, CHO-hNK-2R membranes); conditions: inhibition of [125I]iodohistidyl-neurokinin A binding, 1 hour at room temperature, certain values may be average of more than one experiment
T1 construct: expressed in transfected cells; host or cells: CHO-hNK-2R cells (membranes)
T1 sequence (P21452 1-398): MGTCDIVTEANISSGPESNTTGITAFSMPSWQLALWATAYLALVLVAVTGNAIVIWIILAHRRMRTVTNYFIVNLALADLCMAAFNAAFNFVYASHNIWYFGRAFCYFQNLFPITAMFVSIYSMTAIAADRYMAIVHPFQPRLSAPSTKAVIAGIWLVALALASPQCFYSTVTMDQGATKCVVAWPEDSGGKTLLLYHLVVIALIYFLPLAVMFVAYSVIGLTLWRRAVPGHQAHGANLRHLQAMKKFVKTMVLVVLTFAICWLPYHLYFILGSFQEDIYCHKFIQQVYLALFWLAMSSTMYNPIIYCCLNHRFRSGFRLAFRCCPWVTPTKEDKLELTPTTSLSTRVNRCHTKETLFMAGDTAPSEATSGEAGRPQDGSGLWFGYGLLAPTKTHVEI
Experimental: (§1) The biological activity of the compounds of the present invention is evaluated employing an initial screening assay which rapidly and accurately measured the binding of the tested compound to known NK-1 and NK-2 receptor sites. Assays useful for evaluating tachykinin receptor antagonists are well known in the art. See, e.g., J. Jukic, et al., Life Sciences, 49:1463-1469 (1991); N. Kucharczyk, et al., Journal of Medicinal Chemistry, 36:1654-1661 (1993); N. Rouissi, et al., Biochemical and Biophysical Research Communications, 176:894-901 (1991).
NK-2 Receptor Binding Assay
The CHO-hNK-2R cells, a CHO-derived cell line transformed with the human NK-2 receptor, expressing about 400,000 such receptors per cell, are grown in 75 cm^2 flasks or roller bottles in minimal essential medium (alpha modification) with 10% fetal bovine serum. The gene sequence of the human NK-2 receptor is given in N. P. Gerard, et al., Journal of Biological Chemistry, 265:20455-20462 (1990).
For preparation of membranes, 30 confluent roller bottle cultures are dissociated by washing each roller bottle with 10 ml of Dulbecco's phosphate buffered saline (PBS) without calcium and magnesium, followed by addition of 10 ml of enzyme-free cell dissociation solution (PBS-based, from Specialty Media, Inc.). After an additional 15 minutes, the dissociated cells are pooled and centrifuged at 1,000 RPM for 10 minutes in a clinical centrifuge. Membranes are prepared by homogenization of the cell pellets in 300 ml 50 mM Tris buffer, pH 7.4 with a Tekmar® homogenizer for 10-15 seconds, followed by centrifugation at 12,000 RPM (20,000 x g) for 30 minutes using a Beckman JA-14® rotor. The pellets are washed once using the above procedure. and the final pellets are resuspended in 100-120 ml 50 mM Tris buffer, pH 7.4, and 4 ml aliquots stored frozen at -70° C. The protein concentration of this preparation is 2 mg/ml.
For the receptor binding assay, one 4-ml aliquot of the CHO-hNK-2R membrane preparation is suspended in 40 ml of assay buffer containing 50 mM Tris, pH 7.4, 3 mM manganese chloride, 0.02% bovine serum albumin (BSA) and 4 μg/ml chymostatin. A 200 μl volume of the homogenate (40 μg protein) is used per sample. The radioactive ligand is [^125 I]iodohistidyl-neurokinin A (New England Nuclear, NEX-252), 2200 Ci/mmol. The ligand is prepared in assay buffer at 20 nCi per 100 μl; the final concentration in the assay is 20 pM. Non-specific binding is determined using 1 μM eledoisin. Ten concentrations of eledoisin from 0.1 to 1000 nM are used for a standard concentration-response curve.
All samples and standards are added to the incubation in 10 μl dimethylsulfoxide (DMSO) for screening (single dose) or in 5 μl DMSO for IC50 determinations. The order of additions for incubation is 190 or 195 μl assay buffer, 200 μl homogenate, 10 or 5 μl sample in DMSO, 100 μl radioactive ligand. The samples are incubated 1 hour at room temperature and then filtered on a cell harvester through filters which had been presoaked for two hours in 50 mM Tris buffer, pH 7.7, containing 0.5% BSA. The filter is washed 3 times with approximately 3 ml of cold 50 mM Tris buffer, pH 7.7. The filter circles are then punched into 12×75 mm polystyrene tubes and counted in a gamma counter.
(§2) Column 1 provides the example number of the test antagonist compound as detailed supra. The next columns define the concentration of the test compound (in nanomolar quantities) which inhibits fifty percent of the binding of the appropriate neurokinin, as defined in the column heading. Certain values may represent the average of more than one experiment.

NK-1 receptor = target: T2, NK-1 receptor (Homo sapiens, UniProt P25103); test: NK-1 Receptor Binding Assay (125I-labeled substance P, IM9 cells); conditions: inhibition of 125I-substance P binding to IM9 cells, 45 minutes at 4° C.; certain values may be average of more than one experiment
T2 construct: In this assay an aliquot of IM9 cells; endogenous in cells; host or cells: IM9 cells
Experimental: as §1
NK-1 Receptor Binding Assay
Radioreceptor binding assays are performed using a derivative of a previously published protocol. D. G. Payan, et al., Journal of Immunology, 133:3260-3265 (1984). In this assay an aliquot of IM9 cells (1×10^6 cells/tube in […] medium supplemented with 10% fetal calf serum) is incubated with 20 pM ^125 I-labeled substance P in the presence of increasing competitor concentrations for 45 minutes at 4° C.
The IM9 cell line is a well-characterized cell line which is readily available to the public. See, e.g., Annals of the New York Academy of Science, 190: 221-234 (1972); Nature (London), 251:443-444 (1974); Proceedings of the National Academy of Sciences (USA), 71:84-88 (1974). These cells are routinely cultured in RPMI 1640 supplemented with 50 μg/ml gentamicin sulfate and 10% fetal calf serum.
The reaction is terminated by filtration through a glass fiber filter harvesting system using filters previously soaked for 20 minutes in 0.1% polyethylenimine. Specific binding of labeled substance P is determined in the presence of 20 nM unlabeled ligand.
as §2

human erythrocytes = conditions: Arzneim-Forsch, 32(I):684-685 (1982); in vitro; cited from earlier work
[1] = tested on: glucose transport in human erythrocytes; conditions: Arzneim-Forsch, 32(I):684-685 (1982); in vitro; cited from earlier work
rat alpha-fetoprotein = conditions: Journal of Steroid Biochemistry, 16:503-507 (1982); in vitro; cited from earlier work
benzodiazepine receptor = conditions: Biochemical Pharmacology, 30:3016-3019 (1981); cited from earlier work

T2 sequence (P25103 whole entry): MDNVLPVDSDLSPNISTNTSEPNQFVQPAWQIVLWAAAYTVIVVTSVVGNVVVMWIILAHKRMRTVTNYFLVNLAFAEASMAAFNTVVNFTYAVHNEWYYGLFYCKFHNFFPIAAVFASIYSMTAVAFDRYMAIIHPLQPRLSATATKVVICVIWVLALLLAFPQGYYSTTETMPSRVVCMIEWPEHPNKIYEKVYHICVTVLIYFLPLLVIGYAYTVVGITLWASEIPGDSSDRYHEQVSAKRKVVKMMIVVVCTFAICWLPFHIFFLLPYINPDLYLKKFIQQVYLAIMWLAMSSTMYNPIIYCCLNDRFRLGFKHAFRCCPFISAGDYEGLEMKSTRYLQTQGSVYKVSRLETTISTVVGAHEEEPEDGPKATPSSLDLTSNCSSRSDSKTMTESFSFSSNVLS

SMILES	IC50 (human NK-2 receptor)	IC50 (NK-1 receptor)	other results
O=C1CN(CC(=O)NC(Cc2c[nH]c3ccccc23)C(=O)NCc2ccccc2Cl)C(=O)CN1 (centres unmarked) [Example 2]	1500 nM	230 nM	–
CN(Cc1ccccc1)C(=O)C(Cc1c[nH]c2ccccc12)NC(=O)CN1CCN(c2ccccc2)CC1 (centres unmarked) [Example 15]	–	180 nM	–
O=C(CN1CCC(c2ccccc2)CC1)NC(Cc1c[nH]c2ccccc12)C(=O)NCc1ccccc1Cl (centres unmarked) [Example 10]	570 nM	140 nM	–
O=C(CN1CCN(c2ccccc2)CC1)NC(Cc1c[nH]c2ccccc12)C(=O)NCc1ccc(Cl)cc1 (centres unmarked) [Example 17]	210 nM	210 nM	–
COc1ccccc1CNC(=O)C(Cc1c[nH]c2ccccc12)NC(=O)CN1CCN(c2ccccc2)CC1 (centres unmarked) [Example 14]	650 nM	67 nM	–
O=C(CN1CCN(Cc2ccccc2)CC1)NC(Cc1c[nH]c2ccccc12)C(=O)NCc1ccccc1Cl (centres unmarked) [Example 13, N-(2-chlorobenzyl)-3-(1H-indol-3-yl)-2-[(4-benzylpiperazin-1-yl)acetyl]amino]propanamide dihydrochloride salt]	240 nM	34 nM	–
O=C(CN1CC(=O)N(Cc2ccccc2)CC1=O)NC(Cc1c[nH]c2ccccc12)C(=O)NCCc1ccccc1 (centres unmarked) [Example 5]	740 nM	–	–
O=C(CN1CCC(Cc2ccccc2)CC1)NC(Cc1c[nH]c2ccccc12)C(=O)NCc1ccccc1Cl (centres unmarked) [Example 1, N-(2-chlorobenzyl)-3-(1H-indol-3-yl)-2-[(4-benzylpiperidin-1-yl)acetyl]amino]propanamide hydrochloride salt]	330 nM	290 nM	–
CC(N)(C(=O)OCc1ccccc1)c1c[nH]c2ccccc12 (centres unmarked) [benzyl (2-(3-indolyl)-2-aminopropionate]	–	–	antisickling activity (human erythrocytes): antisickling agent; inhibition of glucose transport in human erythrocytes [1]: inhibitor of glucose transport
O=C(CN1CC(=O)N(Cc2ccccc2)CC1=O)NC(Cc1c[nH]c2ccccc12)C(=O)NCc1ccccc1Cl (centres unmarked) [Example 6]	82 nM	41 nM	–
O=C(CN1CCCCC1)NC(Cc1c[nH]c2ccccc12)C(=O)NCc1ccccc1Cl (centres unmarked) [Example 7]	2200 nM	730 nM	–
CN1CCN(CC(=O)NC(Cc2c[nH]c3ccccc23)C(=O)NCc2ccccc2Cl)CC1 (centres unmarked) [Example 8]	3400 nM	78 nM	–
CN1CC(=O)N(CC(=O)NC(Cc2c[nH]c3ccccc23)C(=O)NCc2ccccc2Cl)CC1=O (centres unmarked) [Example 18]	3100 nM	95 nM	–
O=C(CN1CC(=O)N(Cc2ccccc2)CC1=O)NC(Cc1c[nH]c2ccccc12)C(=O)Nc1ccccc1 (centres unmarked) [Example 4]	2100 nM	–	–
NC(Cc1c[nH]c2ccccc12)C(=O)OCc1ccccc1 (centres unmarked) [benzyl 3-(3-indolyl)-2-aminopropionate]	–	–	inhibition of estrogen binding to rat alpha-fetoprotein (rat alpha-fetoprotein): weak inhibition; Inhibition of benzodiazepine receptor binding in vitro (benzodiazepine receptor): Inhibition
O=C(CN1CC(=O)N(Cc2ccccc2)CC1=O)NC(Cc1c[nH]c2ccccc12)C(=O)NCc1ccccc1 (centres unmarked) [Example 3]	1500 nM	–	–
O=C(CN1CCN(c2ccccc2)CC1)NC(Cc1c[nH]c2ccccc12)C(=O)NCc1ccccc1 (centres unmarked) [Example 16]	430 nM	140 nM	–
O=C(CN1CCN(c2ccccc2)CC1)NC(Cc1c[nH]c2ccccc12)C(=O)NCc1ccccc1Cl (centres unmarked) [Example 9]	240 nM	30 nM	–
